# From PMC12308784, “Organometallic Half-Sandwich Complexes of 1,10-Phenanthroline Derivatives with Improved Solubility, Albumin-Binding, and Nanoformulation Potential Targeting Drug Resistance in Cancer” (Inorganic Chemistry, 2025)
# Assay: release in PBS’ by modified equilibrium dialysis
# Assay type: physicochemical
# Details: nonformulated complex, PBS’ pH 7.4
# Procedure: The release behavior of RhCp*BP in PBS’ buffer (pH = 7.4) was monitored using a modified equilibrium dialysis device (Figures S22 and S23), and the absorbance (proportional to the complex concentration) was measured for the dialysate phase by online UV–vis spectrophotometry over a period of 16 h.
# The release experiments were conducted in PBS’ medium using modified rapid equilibrium dialysis (RED) inserts of Thermo Scientific. Briefly, the receiver compartment of the RED insert was removed in order to fit the dialysis bag into a regular 1 cm quartz cuvette (see Figure S19 for the layout). The dialysis bag (donor compartment) contained 300 μL of aqueous solution of the formulation or the metal complex alone (c = 60 μM) or the HSA or HTP-based formulations. The cuvette was the acceptor/receiver compartment containing PBS’ buffer (2.0 mL). The whole device was capped with the parafilm and the buffer in the cuvette was continuously stirred; no stirring was applied in the RED insert. The release of the complex into the buffer was monitored online using an Agilent Cary 3500 eight-channel photometer. All samples were done in duplicate.
substance,measurement,value
[Rh(III)(η^5-C5Me5)(bathophenanthroline)Cl]Cl [RhCp*BP],time for complete diffusion into PBS’ medium,approximately 9 h
